No end group written: not given here.
Experiments:
Type in all cases: cell-based
[1] = system: Staphylococcus aureus (ATCC 15752); conditions: ATCC 15752, 12 h
Source text: (§1) The microorganisms used in the present invention include Gram-positive bacteria such as Bacillus subtilis (ATCC 62037), Staphylococcus aureus (ATCC 15752) and Streptococcus mutans (ATCC 25175), Gram-negative bacteria such as Escherichia coli (ATCC 27325), Salmonella enteritidis (ATCC 15277) and Pseudomonas putida (ATCC 17426) and fungi such as Candida albicans (ATCC 10231), Saccharomyces cerevisiae (ATCC 44774) and Cryptococcus neoformans (ATCC 34881), obtained from American Type Culture Collection (ATCC).
(§2) The antimicrobial activity of the peptides prepared in Example 1 was determined against microorganisms by 96-well microdilution minimal inhibitory concentration assay. After overnight culturing the bacteria and fungi in trypticase soy broth (TSB) and Saboraud (SAB) at 37° C. and 30° C., respectively, they were inoculated in new media and cultured for 2 hours to exponential growth phase. After diluting the microorganisms to 10^5 per 1 ml, 190 μl was inoculated in each 96-well plate, and 10 μl of serially diluted peptides were added in each well.

[2] = system: Bacillus subtilis (ATCC 62037); conditions: ATCC 62037, 12 h
Source text: as §1, §2

[3] = system: Escherichia coli (ATCC 27325); conditions: ATCC 27325, 12 h
Source text: as §1, §2

[4] = system: Saccharomyces cerevisiae (ATCC 44774); conditions: ATCC 44774, 12 h
Source text: as §1, §2

[5] = system: Cryptococcus neoformans (ATCC 34881); conditions: ATCC 34881, 12 h
Source text: as §1, §2

[6] = system: Salmonella enteritidis (ATCC 15277); conditions: ATCC 15277, 12 h
Source text: as §1, §2

[7] = system: Pseudomonas putida (ATCC 17426); conditions: ATCC 17426, 12 h
Source text: as §1, §2

[8] = system: Streptococcus mutans (ATCC 25175); conditions: ATCC 25175, 12 h
Source text: as §1, §2

[9] = system: Candida albicans (ATCC 10231); conditions: ATCC 10231, 12 h
Source text: as §1, §2

Row | Sequence | Minimum Inhibitory Concentration [1] | Minimum Inhibitory Concentration [2] | Minimum Inhibitory Concentration [3] | Minimum Inhibitory Concentration [4] | Minimum Inhibitory Concentration [5] | Minimum Inhibitory Concentration [6] | Minimum Inhibitory Concentration [7] | Minimum Inhibitory Concentration [8] | Minimum Inhibitory Concentration [9]
1 | KLLKKLLKKLLKNWPIGKLLK [compound 55] | 1 µg/mL | 1 µg/mL | 2 µg/mL | 2 µg/mL | 1 µg/mL | 1 µg/mL | 1 µg/mL | 2 µg/mL | 1 µg/mL
2 | KLLKKLLKKLLKQWPIGKLLK [compound 38] | 1 µg/mL | 1 µg/mL | 2 µg/mL | 2 µg/mL | 1 µg/mL | 1 µg/mL | 1 µg/mL | 2 µg/mL | 2 µg/mL
3 | KLLKNWPIGKLLKKLLKKLLK [compound 21] | 1 µg/mL | 1 µg/mL | 1 µg/mL | 1 µg/mL | 1 µg/mL | 2 µg/mL | 1 µg/mL | 2 µg/mL | 2 µg/mL
4 | KLLKQWPIGKLLKKLLKKLLK [compound 4] | 1 µg/mL | 2 µg/mL | 1 µg/mL | 2 µg/mL | 1 µg/mL | 1 µg/mL | 1 µg/mL | 1 µg/mL | 1 µg/mL
5 | KLLRKLLRKLLRNWPIGKLLR [compound 63] | 1 µg/mL | 1 µg/mL | 1 µg/mL | 2 µg/mL | 1 µg/mL | 2 µg/mL | 1 µg/mL | 2 µg/mL | 1 µg/mL
6 | KLLRNWPIGKLLRKLLRKLLR [compound 29] | 1 µg/mL | 1 µg/mL | 1 µg/mL | 2 µg/mL | 1 µg/mL | 1 µg/mL | 1 µg/mL | 2 µg/mL | 1 µg/mL
7 | KLVKKLVKKLVKQWPIGKLVK [compound 42] | 1 µg/mL | 1 µg/mL | 1 µg/mL | 1 µg/mL | 1 µg/mL | 1 µg/mL | 1 µg/mL | 2 µg/mL | 1 µg/mL
8 | KLVKQWPIGKLVKKLVKKLVK [compound 8] | 1 µg/mL | 1 µg/mL | 1 µg/mL | 2 µg/mL | 1 µg/mL | 1 µg/mL | 1 µg/mL | 2 µg/mL | 2 µg/mL
9 | KLVRKLVRKLVRNFPVGKLVR [compound 68] | 1 µg/mL | 1 µg/mL | 1 µg/mL | 2 µg/mL | 1 µg/mL | 1 µg/mL | 1 µg/mL | 2 µg/mL | 1 µg/mL
10 | KLVRKLVRKLVRQFPVGKLVR [compound 51] | 1 µg/mL | 1 µg/mL | 1 µg/mL | 2 µg/mL | 1 µg/mL | 2 µg/mL | 1 µg/mL | 1 µg/mL | 1 µg/mL
11 | KLVRKLVRKLVRQWPIGKLVR [compound 50] | 1 µg/mL | 1 µg/mL | 1 µg/mL | 2 µg/mL | 1 µg/mL | 2 µg/mL | 1 µg/mL | 1 µg/mL | 1 µg/mL
12 | KLVRNFPVGKLVRKLVRKLVR [compound 34] | 1 µg/mL | 1 µg/mL | 1 µg/mL | 1 µg/mL | 1 µg/mL | 1 µg/mL | 1 µg/mL | 2 µg/mL | 1 µg/mL
13 | KLVRQFPVGKLVRKLVRKLVR [compound 17] | 1 µg/mL | 2 µg/mL | 1 µg/mL | 1 µg/mL | 1 µg/mL | 1 µg/mL | 1 µg/mL | 2 µg/mL | 1 µg/mL
